Measured values as given in PMC12666486, “Novel dimeric dual-modality FAP-targeted agents with favorable tumor retention for image-guided surgery: a preclinical study” (European Journal of Nuclear Medicine and Molecular Imaging, 2025).

Columns and labels:
[1] = set-up: method as in manufacturers; details: unconjugated dyes; ref manufacturers; cited from earlier work
[2] = ref 3 (supplement); cited from earlier work
HT1080hFAP cells = assay: Radioactive-based cell efflux study; set-up: species or system human; details: 2 h post-initial incubation
Procedure: For cell efflux studies, 1.0 × 10^6 HT1080hFAP cells were seeded in 6-well plates and cultivated for 48 h. On the day of the experiment, the cells in each well were washed twice with 1.5 mL of culturing medium and then incubated with the Gallium-68 labelled radiotracer at a final concentration of 1 nM/well for 1 h at 37 °C. The medium containing the unbound radiotracer was then replaced with either fresh medium or a 1 µM FAPI-46 solution in cell medium for blocking condition.
Subsequently, at specific time points, the radioactive medium was removed and collected together with two PBS/0.5% (w/v) BSA washes before adding 1 mL of fresh medium or FAPI-46 blocking solution. Finally, 2 h after the end of the first incubation, the cells were lyzed with 1 mL of 1 M NaOH. All collected fractions were measured in the γ-counter and the percentage of cell-associated activity at different time points relative to the total, corresponding to 1 h after incubation, was reported. The number of experimental replicates performed for each assay is specified in the respective figure legends.

HT1080hFAP tumor = assay: Static PET/CT imaging of xenografted mice; format: in vivo, BALB/c nude mice; details: 1.0 nmol, one mouse per compound
Procedure: For the induction of tumor xenografts, 2 × 10^6 of HT1080hFAP or HT1080 cells in 100 μL appropriate medium were subcutaneously injected in the right and left flank of each mouse (athymic female BALB/c nude), respectively. The tumors were allowed to grow until they had reached a volume of 0.3 to 0.8 cm^3. […] To evaluate ex vivo biodistribution on tumor models, 3 mouse xenografts were injected with 0.25 nmol of Gallium-67 labelled tracer (0.4 MBq) and then sacrificed after 1 h, 4 h and 1 day. For the PET/CT imaging study one xenograft-bearing mouse (tumor volume in the range 0.6–1.0 cm^3) was injected with 1.0 nmol of Gallium-68 labelled tracer (5–8 MBq). […] The images were visualized, processed, and quantified in Mediso InterView FUSION (Mediso Medical Imaging Systems, Budapest, Hungary). […] The results were expressed as percentages of injected dose per gram tissue (% ID/g). For the comparative imaging study (SPECT and in vivo fluorescence imaging), one xenograft-bearing mouse (tumor volume in the range 0.2–0.7 cm^3) was injected with 1.5–2 nmol of Gallium-67 tracer (15–17 MBq) and imaged at various time points up to 2 days p.i. […] The images were visualized, processed, and quantified in Mediso InterView FUSION (Mediso Medical Imaging Systems, Budapest, Hungary). […] The fluorescence emission was reported as photons/s/mm^2.

Question: Which Stokes shift [1] does the source give for `CC1(C)C(=CC=C2CCCC(C=CC3=[N+](CCCCCC(=O)[O-])c4ccc(S(=O)(=O)[O-])cc4C3(C)C)=C2Oc2ccc(S(=O)(=O)[O-])cc2)N(CCCCS(=O)(=O)[O-])c2ccc(S(=O)(=O)[O-])cc21.[Na+].[Na+].[Na+].[Na+]` [IRDye-800CW] here?
Answer: The Stokes shift was 17.

Question: And the “λEm (nm)” value [1]?
Answer: The value was 792 nm.

Question: And the “λEx (nm)” value [1]?
Answer: The value was 775 nm.

Question: With `CC(=O)NC1CCCN(O)C(=O)/C=C(/C)CCOC(=O)C(NC(C)=O)CCCN(O)C(=O)/C=C(/C)CCOC(=O)C(NC(C)=O)CCCN(O)C(=O)/C=C(/C)CCOC1=O` (centres unmarked) [TAFC] as the compound, how does the LogDpH7.4 [2] read?
Answer: The LogDpH7.4 was -2.08 ± 0.02.

Question: With `CC1(C)C(=CC=C2CCCC(C=CC3=[N+](CCC[N+](C)(C)C)c4ccc(S(=O)(=O)O)cc4C3(C)C)=C2Oc2ccc(CCC(=O)O)cc2)N(CCC[N+](C)(C)C)c2ccc(S(=O)(=O)O)cc21` [ZW800] as the compound, how does the Stokes shift [1] read?
Answer: Its Stokes shift is 18.

Question: What about the “λEm (nm)” value [1] of the same compound?
Answer: The value was 786 nm.

Question: What about the “λEx (nm)” value [1] of the same compound?
Answer: Its value is 768 nm.

Question: For `CN(CCCN1CCN(C(=O)CN2CCN(CC(=O)[O-])CCN(CC(=O)[O-])CCN(CC(=O)[O-])CC2)CC1)c1ccc2nccc(C(=O)NCC(=O)N3CC(F)(F)C[C@H]3C#N)c2c1.[68Ga+3]` [[^68Ga]Ga-FAPI-46], which “Retained activity, % of the internalized fraction” value (HT1080hFAP cells; blocking with 1 µM FAPI-46, 1 nM) is on record?
Answer: Its value is 9.4 ± 1.5%.

Question: What about the “Retained activity, % of the internalized fraction” value (HT1080hFAP cells; without blocking, 1 nM) of the same compound?
Answer: Its value is 21.9 ± 1.4%.

Question: What about the “%ID/g in FAP(+)T (PET/CT, manually drawn ROI)” value (HT1080hFAP tumor; 1h p.i.) of the same compound?
Answer: Its value is 3.4 %ID/g.

Question: And the “%ID/g in FAP(+)T (PET/CT, manually drawn ROI)” value (HT1080hFAP tumor; 2h p.i.)?
Answer: Its value is 3.1 %ID/g.
